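All cell lines were grown in 96-well plates and treated with compound for 48 hours. Here, GI50 denotes the concentration required for 50% inhibition of growth.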 The source made the active and inactive calls. Rule as the data show it: active = GI50 up to about 1.1 µM and inactive = higher.
Experiments:
Assay in all cases: growth of human tumour cells (NCI), 48 h
A549 = system: A549
CCRF-CEM = system: CCRF-CEM
HOP-92 = system: HOP-92
Hs-578T = system: Hs-578T
KM12 = system: KM12
MDA-MB-435 = system: MDA-MB-435
OVCAR-3 = system: OVCAR-3
OVCAR-4 = system: OVCAR-4
OVCAR-5 = system: OVCAR-5
PC-3 = system: PC-3
SF-295 = system: SF-295
SF-539 = system: SF-539
SK-MEL-5 = system: SK-MEL-5
SK-OV-3 = system: SK-OV-3
SNB-19 = system: SNB-19
SR = system: SR
TK-10 = system: TK-10
CAKI-1 = system: CAKI-1
IGROV-1 = system: IGROV-1
RPMI-8226 = system: RPMI-8226

Measured: GI50

C=CC(C)(C)c1cc([C@@H]2COc3cc(O)ccc3C2=O)c(O)c(OC)c1OC
inactive: A549 15.8 µM | CCRF-CEM 16.6 µM | HOP-92 6.1 µM | Hs-578T 16.4 µM | KM12 13.2 µM | MDA-MB-435 6.44 µM | OVCAR-3 10.5 µM | OVCAR-4 3.94 µM | OVCAR-5 17.1 µM | PC-3 12.9 µM | SF-295 12.2 µM | SF-539 18.8 µM | SK-MEL-5 10.4 µM | SK-OV-3 14.6 µM | SNB-19 13.5 µM | SR 8.18 µM | TK-10 27.9 µM

COC(=O)C1=C(N)C2=C(N)Oc3ccccc3C2CC1=C(C#N)C#N (stereo unspecified)
inactive: A549 32.6 µM | CAKI-1 23.2 µM | CCRF-CEM 24.2 µM | Hs-578T 27.9 µM | IGROV-1 18.4 µM | KM12 15.7 µM | MDA-MB-435 34.8 µM | OVCAR-3 25.6 µM | OVCAR-4 30.2 µM | OVCAR-5 27.9 µM | PC-3 28.1 µM | RPMI-8226 19.1 µM | SF-295 25 µM | SF-539 43.6 µM | SK-MEL-5 25.8 µM | SK-OV-3 31.4 µM | SNB-19 18.6 µM | SR 12.6 µM | TK-10 25.6 µM

O=C(CSc1nc2ccc(I)cc2c(=O)n1Cc1ccccc1)NN1C(=O)c2ccccc2C1=O
inactive: A549 18 µM | CAKI-1 9.23 µM | HOP-92 14.4 µM | Hs-578T 6.47 µM | IGROV-1 19.3 µM | KM12 31.2 µM | MDA-MB-435 34.4 µM | OVCAR-3 11.6 µM | OVCAR-4 12.2 µM | OVCAR-5 26.2 µM | PC-3 4.09 µM | RPMI-8226 33.3 µM | SF-295 10.6 µM | SF-539 3.42 µM | SK-MEL-5 18.1 µM | SK-OV-3 11.6 µM | SNB-19 16.5 µM | SR 25.7 µM | TK-10 13.7 µM

COc1ccc(/C=C2\NC(=S)N(CN3CCOCC3)C2=O)cc1
inactive: A549 > 100 µM | CCRF-CEM > 100 µM | HOP-92 > 100 µM | Hs-578T > 100 µM | IGROV-1 > 100 µM | KM12 > 100 µM | MDA-MB-435 > 100 µM | OVCAR-3 > 100 µM | OVCAR-4 > 100 µM | OVCAR-5 > 100 µM | PC-3 > 100 µM | RPMI-8226 > 100 µM | SF-295 > 100 µM | SK-MEL-5 > 100 µM | SK-OV-3 > 100 µM | SNB-19 > 100 µM | SR > 100 µM | TK-10 > 100 µM

Cc1ccc2c(c1)C(=O)c1ccc(C)nc1C2=O
inactive: A549 31.8 µM | CAKI-1 41.7 µM | CCRF-CEM 58.7 µM | Hs-578T > 100 µM | IGROV-1 27.7 µM | KM12 27.9 µM | MDA-MB-435 19.3 µM | OVCAR-3 6.19 µM | OVCAR-4 27.7 µM | OVCAR-5 > 100 µM | PC-3 31.8 µM | RPMI-8226 43.3 µM | SF-295 24.6 µM | SF-539 23 µM | SK-MEL-5 13.2 µM | SK-OV-3 > 100 µM | SNB-19 22.2 µM | SR 34.1 µM | TK-10 > 100 µM

COc1cc(O)c2c(c1)C(=O)c1cc3c(c(O)c1C2=O)C(OC1OC(C)C(OC)C(O)C1OC)C(OC)C(C)(O)C3=O (stereo unspecified)
inactive: A549 3.55 µM | CAKI-1 3.04 µM | CCRF-CEM 4.1 µM | Hs-578T 8.47 µM | IGROV-1 2.12 µM | KM12 3.7 µM | MDA-MB-435 3.8 µM | OVCAR-3 2.84 µM | OVCAR-4 4.03 µM | OVCAR-5 16.1 µM | PC-3 3.36 µM | RPMI-8226 1.29 µM | SF-295 4.73 µM | SF-539 3.92 µM | SK-MEL-5 1.68 µM | SK-OV-3 13.3 µM | SNB-19 6.53 µM | SR 1.64 µM | TK-10 3.67 µM

From ChEMBL document CHEMBL1201862, “PubChem BioAssay data set” (2004)
